Legend:
[1] = test system: SJSA-1; assay: Cytotoxicity against human SJSA1 cells after 72 hrs by SRB assay; type: functional, cell-based; settings: SJSA-1, 72 h
[2] = test system: HCT-116; assay: Cytotoxicity against human HCT116 cells after 72 hrs by SRB assay; type: functional, cell-based; settings: HCT-116, 72 h
[3] = biological target: Tumour suppressor p53/oncoprotein Mdm2 (Homo sapiens, UniProt Q00987); assay: Inhibition of p53-MDM2 (1 to 118 residues) interaction (unknown origin) expressed in Escherichia coli BL-21 (DE3) assessed as inhibition of MDM2 binding by fluorescence polarization competitive binding assay
Chain of Tumour suppressor p53/oncoprotein Mdm2 (P04637 whole entry, the tested form may be a part): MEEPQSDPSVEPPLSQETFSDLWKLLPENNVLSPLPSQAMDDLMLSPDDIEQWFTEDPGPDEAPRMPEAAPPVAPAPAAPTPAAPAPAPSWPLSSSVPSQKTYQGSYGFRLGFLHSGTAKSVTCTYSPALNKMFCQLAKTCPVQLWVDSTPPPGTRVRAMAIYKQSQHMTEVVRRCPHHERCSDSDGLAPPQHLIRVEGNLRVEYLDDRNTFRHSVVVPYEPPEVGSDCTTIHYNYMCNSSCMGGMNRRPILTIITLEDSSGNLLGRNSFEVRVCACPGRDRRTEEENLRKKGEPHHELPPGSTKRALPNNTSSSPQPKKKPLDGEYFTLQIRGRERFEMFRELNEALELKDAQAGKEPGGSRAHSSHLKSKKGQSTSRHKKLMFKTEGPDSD
Chain of Tumour suppressor p53/oncoprotein Mdm2 (Q00987 whole entry, the tested form may be a part): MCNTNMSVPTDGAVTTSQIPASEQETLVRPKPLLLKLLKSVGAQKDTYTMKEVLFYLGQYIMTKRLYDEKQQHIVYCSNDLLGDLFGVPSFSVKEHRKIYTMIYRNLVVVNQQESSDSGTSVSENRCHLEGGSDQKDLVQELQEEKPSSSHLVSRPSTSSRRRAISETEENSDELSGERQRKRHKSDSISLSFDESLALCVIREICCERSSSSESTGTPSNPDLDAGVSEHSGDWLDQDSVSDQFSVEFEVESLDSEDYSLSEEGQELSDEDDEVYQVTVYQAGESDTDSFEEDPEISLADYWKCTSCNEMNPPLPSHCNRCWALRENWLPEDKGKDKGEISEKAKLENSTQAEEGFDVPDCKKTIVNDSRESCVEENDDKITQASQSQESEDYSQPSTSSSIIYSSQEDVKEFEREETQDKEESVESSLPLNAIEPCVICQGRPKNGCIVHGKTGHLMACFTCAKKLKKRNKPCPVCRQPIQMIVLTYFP

[4] = test system: SW-620; assay: Cytotoxicity against human SW620 cells after 72 hrs by SRB assay; type: functional, cell-based; settings: SW-620, 72 h
[5] = test system: HCT-116; assay: Cytotoxicity against human HCT116 cells after 72 hrs by SRB assay relative to Nutlin-3; type: functional
[6] = test system: PC-3; assay: Cytotoxicity against human PC3 cells after 72 hrs by SRB assay; type: functional, cell-based; settings: PC-3, 72 h
[7] = test system: A549; assay: Cytotoxicity against human A549 cells after 72 hrs by SRB assay; type: functional, cell-based; settings: A549, 72 h

Row | Structure (SMILES) | IC50 [1] [µM] | IC50 [2] [µM] | IC50 [3] [µM] | IC50 [4] [µM] | Ratio IC50 [5] | IC50 [6] [µM] | IC50 [7] [µM]
1 | Nc1sc(-c2ccc(Cl)cc2)c(-c2ccc(Cl)cc2)c1C(=O)Nc1ccccc1 | > 500 | 14.5 | > 50 | 39.7 |  |  | 
2 | COC(=O)c1c(N)sc(-c2ccc(Cl)cc2)c1-c1ccc(Cl)cc1 | 40.9 | 1.66 | 4.23 | 3.23 | 1.3 |  | 
3 | Nc1sc(-c2ccc(Cl)cc2)c(-c2ccc(Cl)cc2)c1C(=O)NC1CC1 | 31.9 | 0.24 | 2.08 | 1.74 | 1.3 |  | 
4 | Nc1sc(-c2ccc(Cl)cc2)c(-c2ccc(Cl)cc2)c1C(=O)NC1CCCCC1 | 102 | 0.59 | 0.9 | 3.07 | 1.3 |  | 
5 | Nc1sc(-c2ccc(Cl)cc2)c(-c2ccc(Cl)cc2)c1C(=O)N1CCCC1 | 17.6 | 3.63 | 2.84 | 3.87 | 1.3 |  | 
6 | COc1ccc(C2=NC(c3ccc(Cl)cc3)C(c3ccc(Cl)cc3)N2C(=O)N2CCNC(=O)C2)c(OC(C)C)c1 (racemic) | 1.81 | 4.63 |  | 0.38 |  | 6.37 | 0.41

From ChEMBL document CHEMBL3132800, “Identification of novel inhibitors of p53MDM2 interaction facilitated by pharmacophore-based virtual screening combining molecular docking strategy” (Medchemcomm, 2013)
